Measured values reported in patent publication EP4678644A1, “SUBSTITUTED DIHYDROTHIENOPYRIMIDINE COMPOUND, PREPARATION METHOD THEREFOR, AND USE THEREOF” (Shanghai Yidi Biotechnology Co., Ltd., priority 2023, dated 2024).

How the values were obtained:
PDE4B2 [1] = target: T1, PDE4B2 (Homo sapiens, UniProt Q07343); assay: PDE4B2 cell experiment (cAMP, Eu-cAMP tracer / Ulight-anti-cAMP); format: cell-based; conditions: Flpin-293-PDE4B2 cells; for Cell Inhibition% @10 nM / inhibition at 0.01 µM: 10 nM; for Cell Inhibition% @100 nM / inhibition at 0.1 µM: 100 nM; for Cell Inhibition% @1 nM / inhibition at 0.001 µM: 1 nM; for IC50: Foskolin
T1 construct: expressed in transfected cells; host or cells: Flp-In-293 (Flpin-293-PDE4B2 [sic])
Method: All compounds were dissolved in DMSO into 10 mM or 20 mM stock solutions. The compound to be tested was diluted with DMSO with a 3-fold gradient. […] 40 nL/well of the compound or a DMSO control was transferred to a 384-well plate by using Echo 550 instrument. […] The plate was incubated at 37°C for 30 minutes. Eu-cAMP tracer and Ulight-anti-cAMP were frozen and thawed and diluted in a lysis buffer. 10 of µl Eu-cAMP tracer was added to an experimental well, and 10 µl of Ulight-anti-cAMP was added to the experimental well. The reaction plate was centrifuged at 200 g at room temperature for 30 s and then left to stand at 25°C for 1 h, and data was then collected by Envision. Inhibition % = 100 - (Signal compound - SignalAve positive control)/(SignalAve negative control - SignalAve positive control) × 100. Graphpad 8.0 software was then used to obtain an IC50 value by calculation using Y = Bottom + (Top - Bottom)/(1 + 10^((LogIC50 - X) * HillSlope)).

PDE4B2 [2] = target: T1, PDE4B2; assay: PDE4B2 enzyme experiment (AMP-glo, cAMP substrate); format: biochemical; conditions: for inhibition at 0.001 µM: read-out: PDE4B2 Enzyme Inhibition% @1 nM; for inhibition at 0.01 µM: read-out: PDE4B2 Enzyme Inhibition% @10 nM; for inhibition at 0.1 µM: read-out: PDE4B2 Enzyme Inhibition% @100 nM
Method: All compounds were dissolved in DMSO into 10 mM or 20 mM stock solutions. The compound to be tested was diluted with DMSO in a 3-fold gradient. 20 nL/well of the compound or a DMSO control was transferred to a 384-well plate by using Echo 550 instrument. The plate was sealed with a membrane and centrifuged for 1 minute. A 2x enzyme solution was prepared with an assay buffer, and 2 uL/well of the 2x enzyme solution was added, followed by equilibration at room temperature for 10 minutes. A 2x Cyclic-3',5'-AMP substrate solution was prepared with an assay buffer, and 2 uL/well of the 2x substrate solution was added, followed by incubation at room temperature for 60 minutes. 4 uL of AMP-glo reagent was added, followed by incubation at room temperature for 60 minutes. 8 ul of an AMP detection solution was added, followed by incubation at room temperature for 60 minutes. An RLU value was read on Envision 2105 plate reader. The RLU value represents the concentration of the product AMP. Inhibition rate % ^= (1 - (RLUpositive control - RLUcompound)/(RLUpositive control - RLUnegative control)) * 100. The IC50 value was then caulculated by Graphpad 8.0 software using Y = Bottom + (Top - Bottom)/(1 + 10^((LogIC50 - X) * HillSlope)).

T1 sequence (Q07343 1-564 isoform Q07343-2): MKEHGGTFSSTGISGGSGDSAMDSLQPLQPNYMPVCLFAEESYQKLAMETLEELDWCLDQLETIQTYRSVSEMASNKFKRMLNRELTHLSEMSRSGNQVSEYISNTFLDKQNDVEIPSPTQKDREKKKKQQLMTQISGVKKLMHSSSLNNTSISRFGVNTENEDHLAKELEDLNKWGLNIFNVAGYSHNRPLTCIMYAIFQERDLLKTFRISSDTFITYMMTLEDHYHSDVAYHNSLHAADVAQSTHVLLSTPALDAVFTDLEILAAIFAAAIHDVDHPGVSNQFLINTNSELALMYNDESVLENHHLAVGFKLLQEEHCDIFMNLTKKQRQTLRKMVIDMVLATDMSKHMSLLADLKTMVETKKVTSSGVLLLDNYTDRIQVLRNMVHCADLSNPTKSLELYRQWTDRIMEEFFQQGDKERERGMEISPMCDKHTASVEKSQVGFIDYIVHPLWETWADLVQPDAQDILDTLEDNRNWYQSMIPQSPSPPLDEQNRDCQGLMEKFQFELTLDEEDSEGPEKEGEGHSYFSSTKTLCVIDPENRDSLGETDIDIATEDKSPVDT

Structure (SMILES): [O-][S+]1CCc2nc(N3CCc4cc(Cl)c(F)cc4C3)nc(NC3(CO)CCC3)c21 (stereo not shown) [Compound 96]
- Cell Inhibition% @1 nM (PDE4B2 [1]): -2.7%
- Cell Inhibition% @10 nM (PDE4B2 [1]): 15.7%
- Cell Inhibition% @100 nM (PDE4B2 [1]): 84.8%

Structure (SMILES): [O-][S+]1CCc2nc(N3CC[C@@H]4c5ccc(Br)cc5OC[C@H]4C3)nc(NC3(CO)CCC3)c21 (stereo partly shown) [Compound 115]
- Cell Inhibition% @1 nM (PDE4B2 [1]): 7.72%
- Cell Inhibition% @10 nM (PDE4B2 [1]): 39.69%
- Cell Inhibition% @100 nM (PDE4B2 [1]): 97.73%

Structure (SMILES): [O-][S@+]1CCc2nc(N3CC[C@@H]4c5ccc(Cl)cc5CC[C@@H]4C3)nc(NC3(CO)CCC3)c21 [Compound 12, (R)-2-((4aS,10bS)-8-chloro-1,4,4a,5,6,10-hexahydrobenzo[f]isoquinolin-3(2H)-yl)-4-((1-(hydroxymethyl)cyclobutyl)amino)-6,7-dihydrothieno[3,2-d]pyrimidine 5-oxide]
- inhibition at 0.01 µM (PDE4B2 [1]): 16%
- inhibition at 0.1 µM (PDE4B2 [1]): 7.46%
- IC50 (PDE4B2 [2]): 15.4 nM

Structure (SMILES): [O-][S@+]1CCc2nc(N3CCc4scc(Br)c4C3)nc(NC3(CO)CCC3)c21 [Compound 57, (R)-2-(3-bromo-6,7-dihydrothieno[3,2-c]pyridin-5(4H)-yl)-4-((1-(hydroxymethyl)cyclobutyl)amino)-6,7-dihydrothieno[2,2-d]pyrimidine 5-oxide]
- inhibition at 0.001 µM (PDE4B2 [1]): 11.8%
- inhibition at 0.01 µM (PDE4B2 [1]): 14.9%
- inhibition at 0.1 µM (PDE4B2 [1]): 71.6%
- inhibition at 0.001 µM (PDE4B2 [2]): 38.9%
- inhibition at 0.01 µM (PDE4B2 [2]): 90.5%
- inhibition at 0.1 µM (PDE4B2 [2]): 100%

Structure (SMILES): [O-][S+]1CCc2nc(N3CCc4nc(Br)sc4C3)nc(NC3(CO)CCC3)c21 (stereo not shown) [Compound 63]
- Cell Inhibition% @10 nM (PDE4B2 [1]): 31.1%
- Cell Inhibition% @100 nM (PDE4B2 [1]): 76.6%
- IC50 (PDE4B2 [2]): 4.21 nM

Structure (SMILES): Cn1nc(Cl)c2c3c(cnc21)CN(c1nc2c(c(NC4(CO)CCC4)n1)[S+]([O-])CC2)CC3 (stereo not shown) [Compound 105]
- Cell Inhibition% @1 nM (PDE4B2 [1]): 7.53%
- Cell Inhibition% @10 nM (PDE4B2 [1]): 42.53%
- Cell Inhibition% @100 nM (PDE4B2 [1]): 93.48%

Structure (SMILES): [O-][S+]1CCc2nc(N3CCc4ccc(Cl)cc4CC3)nc(NC3(CO)CCC3)c21 (stereo not shown) [Compound 34]
- Cell Inhibition% @10 nM (PDE4B2 [1]): 14%
- Cell Inhibition% @100 nM (PDE4B2 [1]): 62%
- IC50 (PDE4B2 [2]): 1.96 nM

Structure (SMILES): C[C@H]1c2ccc(Cl)cc2CCN1c1nc2c(c(NC3(CO)CCC3)n1)[S@+]([O-])CC2 [Compound 28, (R)-2-((S)-6-chloro-1-methyl-3,4-dihydroisoquinolin-2(1H)-yl)-4-((1-(hydroxymethyl)cyclobutyl)amino)-6,7-dihydrothieno[3,2-d]pyrimidine 5-oxide]
- IC50 (PDE4B2 [1]): 36.3 nM
- IC50 (PDE4B2 [2]): 0.68 nM

Structure (SMILES): [O-][S+]1CCc2nc(N3CCc4ccc(Cl)cc4C3)nc(NC3(CO)CCC3)c21 (stereo not shown) [Compound 20]
- Cell Inhibition% @10 nM (PDE4B2 [1]): 14.18%
- Cell Inhibition% @100 nM (PDE4B2 [1]): 69.92%
- IC50 (PDE4B2 [2]): 1.85 nM

Structure (SMILES): [O-][S@+]1CCc2nc(N3CC[C@H]4c5ncc(Cl)cc5OC[C@@H]4C3)nc(NC3(CO)CCC3)c21 [Compound 114, (R)-2-((6aS,10aR)-3-chloro-6a,9,10,10-tetrahydro-6H-pyrano[3,2-b:5,4-c']dipyridin-8(7H)-yl)-4-((1-(hydroxymethyl)cyclobutyl)amino)-6,7-dihydrothieno[3,2-d]pyrimidine 5-oxide]
- inhibition at 0.001 µM (PDE4B2 [1]): -1.54%
- inhibition at 0.01 µM (PDE4B2 [1]): 8.74%
- inhibition at 0.1 µM (PDE4B2 [1]): 54.5%

Structure (SMILES): [O-][S+]1CCc2nc(N3CCc4cc(N5CC(F)(F)C5)ccc4C3)nc(NC3(CO)CCC3)c21 (stereo not shown) [Compound 88]
- Cell Inhibition% @1 nM (PDE4B2 [1]): 3.67%
- Cell Inhibition% @10 nM (PDE4B2 [1]): 28.76%
- Cell Inhibition% @100 nM (PDE4B2 [1]): 93.47%

Structure (SMILES): [O-][S+]1CCc2nc(N3CCc4c(nn5cccc(Cl)c45)C3)nc(NC3(CO)CCC3)c21 (stereo not shown) [Compound 10]
- IC50 (PDE4B2 [1]): 73.8 nM
- IC50 (PDE4B2 [2]): 2.31 nM

Structure (SMILES): [O-][S@@+]1CCc2nc(N3CCc4nn5cc(Cl)cnc5c4C3)nc(NC3(CO)CCC3)c21 [Compound 3]
- IC50 (PDE4B2 [2]): 926 nM

Structure (SMILES): NC(=O)c1ccc2c(c1)CCN(c1nc3c(c(NC4(CO)CCC4)n1)[S+]([O-])CC3)C2 (stereo not shown) [Compound 75]
- Cell Inhibition% @1 nM (PDE4B2 [1]): 4.93%
- Cell Inhibition% @10 nM (PDE4B2 [1]): 24.88%
- Cell Inhibition% @100 nM (PDE4B2 [1]): 51.36%
- IC50 (PDE4B2 [2]): 0.81 nM

Structure (SMILES): [O-][S@+]1CCc2nc(N3CCc4cc(N5CCCC5)cnc4C3)nc(NC3(CO)CCC3)c21 [Compound 184, (R)-4-((1-(hydroxymethyl)cyclobutyl)amino)-2-(3-(pyrrolidin-1-yl)-5,8-dihydro-1,7-naphthyridin-7(6H)-yl)-6,7-dihydrothieno[3,2-d]pyrimidine 5-oxide]
- inhibition at 0.001 µM (PDE4B2 [1]): 36.5%
- inhibition at 0.01 µM (PDE4B2 [1]): 94.3%
- inhibition at 0.1 µM (PDE4B2 [1]): 100%

Structure (SMILES): Nc1nc2cc(Cl)ccc2c2c1CN(c1nc3c(c(NC4(CO)CCC4)n1)[S+]([O-])CC3)CC2 (stereo not shown) [Compound 102]
- Cell Inhibition% @1 nM (PDE4B2 [1]): -0.08%
- Cell Inhibition% @10 nM (PDE4B2 [1]): 35.86%
- Cell Inhibition% @100 nM (PDE4B2 [1]): 95.46%

Structure (SMILES): [O-][S+]1CCc2nc(N3CC[C@H]4c5cnc(Cl)cc5OC[C@@H]4C3)nc(NC3(CO)CCC3)c21 (stereo partly shown) [Compound 117]
- Cell Inhibition% @1 nM (PDE4B2 [1]): 5.32%
- Cell Inhibition% @10 nM (PDE4B2 [1]): 17.32%
- Cell Inhibition% @100 nM (PDE4B2 [1]): 61.63%

Structure (SMILES): O=C1CCCN1c1ccc2c(c1)CCN(c1nc3c(c(NC4(CO)CCC4)n1)[S+]([O-])CC3)C2 (stereo not shown) [Compound 87]
- Cell Inhibition% @1 nM (PDE4B2 [1]): 2.90%
- Cell Inhibition% @10 nM (PDE4B2 [1]): 31.33%
- Cell Inhibition% @100 nM (PDE4B2 [1]): 89.06%

Structure (SMILES): [O-][S+]1CCc2nc(N3CC[C@@H]4c5ccc(C(F)(F)F)cc5OC[C@H]4C3)nc(NC3(CO)CCC3)c21 (stereo partly shown) [Compound 111]
- Cell Inhibition% @1 nM (PDE4B2 [1]): 8.07%
- Cell Inhibition% @10 nM (PDE4B2 [1]): 22.21%
- Cell Inhibition% @100 nM (PDE4B2 [1]): 81.06%

Structure (SMILES): Cn1cc2c(n1)CN(c1nc3c(c(NC4(CO)CCC4)n1)[S+]([O-])CC3)CC2 (stereo not shown) [Compound 30]
- Cell Inhibition% @10 nM (PDE4B2 [1]): 11.30%
- Cell Inhibition% @100 nM (PDE4B2 [1]): 48.00%

Structure (SMILES): [O-][S+]1CCc2nc(N3CCC4=C(COc5ccccc54)C3)nc(NC3(CO)CCC3)c21 (stereo not shown) [Compound 97]
- Cell Inhibition% @1 nM (PDE4B2 [1]): 1.66%
- Cell Inhibition% @10 nM (PDE4B2 [1]): 17.36%
- Cell Inhibition% @100 nM (PDE4B2 [1]): 86.54%

Structure (SMILES): COc1ccc2c(c1)OC[C@H]1CN(c3nc4c(c(NC5(CO)CCC5)n3)[S+]([O-])CC4)CC[C@H]21 (stereo partly shown) [Compound 110]
- Cell Inhibition% @1 nM (PDE4B2 [1]): 18.98%
- Cell Inhibition% @10 nM (PDE4B2 [1]): 76.13%
- Cell Inhibition% @100 nM (PDE4B2 [1]): 100.03%

Structure (SMILES): [O-][S+]1CCc2nc(N3CC[C@@H]4c5ccc(F)cc5OC[C@H]4C3)nc(NC3(CO)CCC3)c21 (stereo partly shown) [Compound 109]
- Cell Inhibition% @1 nM (PDE4B2 [1]): 17.70%
- Cell Inhibition% @10 nM (PDE4B2 [1]): 65.40%
- Cell Inhibition% @100 nM (PDE4B2 [1]): 97.85%

Structure (SMILES): [O-][S@+]1CCc2nc(N3CCc4c(ccc5[nH]ncc45)C3)nc(NC3(CO)CCC3)c21 [Compound 118, (R)-4-((1-(hydroxymethyl)cyclobutyl)amino)-2-(3,6,8,9-tetrahydro-7H-pyrazolo[4,3-f]isoquinolin-7-yl)-6,7-dihydrothieno[3,2-d]pyrimidine 5-oxide]
- inhibition at 0.001 µM (PDE4B2 [1]): 11.1%
- inhibition at 0.01 µM (PDE4B2 [1]): 41.7%
- inhibition at 0.1 µM (PDE4B2 [1]): 89%

Structure (SMILES): [O-][n+]1cc2c(c3ccc(Cl)cc31)CCN(c1nc3c(c(NC4(CO)CCC4)n1)[S+]([O-])CC3)C2 (stereo not shown) [Compound 106]
- Cell Inhibition% @1 nM (PDE4B2 [1]): 0.41%
- Cell Inhibition% @10 nM (PDE4B2 [1]): 21.18%
- Cell Inhibition% @100 nM (PDE4B2 [1]): 67.52%

Structure (SMILES): [O-][S@+]1CCc2nc(N3CCc4c(Br)csc4C3)nc(NC3(CO)CCC3)c21 [Compound 54, (R)-2-(3-bromo-4,7-dihydrothieno[2,3-c]pyridin-6(5H)-yl)-4-((1-(hydroxymethyl)cyclobutyl)amino)-6,7-dihydrothieno[3,2-d]pyrimidine 5-oxide]
- inhibition at 0.001 µM (PDE4B2 [2]): 9.28%
- inhibition at 0.01 µM (PDE4B2 [2]): 58.9%
- inhibition at 0.1 µM (PDE4B2 [2]): 96.6%

Structure (SMILES): Cc1ccc2c(c1)OC[C@H]1CN(c3nc4c(c(NC5(CO)CCC5)n3)[S+]([O-])CC4)CC[C@H]21 (stereo partly shown) [Compound 112]
- Cell Inhibition% @1 nM (PDE4B2 [1]): 12.30%
- Cell Inhibition% @10 nM (PDE4B2 [1]): 54.08%
- Cell Inhibition% @100 nM (PDE4B2 [1]): 99.44%

Structure (SMILES): [O-][S+]1CCc2nc(N3CCc4cc(F)c(F)cc4C3)nc(NC3(CO)CCC3)c21 (stereo not shown) [Compound 95]
- Cell Inhibition% @1 nM (PDE4B2 [1]): -4.2%
- Cell Inhibition% @10 nM (PDE4B2 [1]): 6.8%
- Cell Inhibition% @100 nM (PDE4B2 [1]): 66.7%

Structure (SMILES): Cn1cc2c(n1)CCN(c1nc3c(c(NC4(CO)CCC4)n1)[S+]([O-])CC3)C2 (stereo not shown) [Compound 31]
- IC50 (PDE4B2 [2]): 7.42 nM

Structure (SMILES): [O-][S+]1CCc2nc(N3CCc4cc(-c5ncco5)ccc4C3)nc(NC3(CO)CCC3)c21 (stereo not shown) [Compound 84]
- Cell Inhibition% @1 nM (PDE4B2 [1]): 32.85%
- Cell Inhibition% @10 nM (PDE4B2 [1]): 96.96%
- Cell Inhibition% @100 nM (PDE4B2 [1]): 100.72%

Structure (SMILES): [O-][S+]1CCc2nc(N3CCc4scnc4C3)nc(NC3(CO)CCC3)c21 (stereo not shown) [Compound 17]
- IC50 (PDE4B2 [2]): 471 nM

Structure (SMILES): [O-][S@+]1CCc2nc(N3CC[C@@H]4c5ccncc5OC[C@H]4C3)nc(NC3(CO)CCC3)c21 [Compound 113, (R)-4-((1-(hydroxymethyl)cyclobutyl)amino)-2-((6aR,10aS)-6a,9,10,10-tetrahydro-6H-pyrano[2,3-c:5,4-c']dipyridin-8(7H)-yl)-6,7-dihydrothieno[3,2-d]pyrimidine 5-oxide]
- inhibition at 0.001 µM (PDE4B2 [1]): 5.01%
- inhibition at 0.01 µM (PDE4B2 [1]): 22.8%
- inhibition at 0.1 µM (PDE4B2 [1]): 71.9%
